Experimental data from US12065430B2, “Indazole compound or salt thereof” (TAIHO PHARMACEUTICAL CO., LTD., priority 2018, dated 2024).

Each molecule was assayed against G12C K-Ras4B (1-169) (Homo sapiens (Human), UniProt P01116, G12C) (assay: Test of compounds on whether to bind to KRASG12C (LC-MS compound binding rate)). Conditions: final compound concentration of 2 μM, 1 μM protein, 25° C. for 2 hours.
Description: Test compounds were prepared in the form of a 10 mM DMSO solution.
K-Ras4B (1-169) and G12C K-Ras4B (1-169) proteins were mixed and diluted with a buffer (1×TBS, 0.1 mM TCEP) to prepare individual 1 μM protein solutions. A 10 mM test compound was diluted tenfold with DMSO to make a 1 mM solution, and then diluted fivefold with DMSO to make a 200 μM solution. The 200 μM solution was further diluted fivefold to make a 40 μM solution. When the final compound concentration was 10 μM, 1 μL of a 200 μM test compound was added to 19 μL of a 1 μM protein solution. When the final compound concentration was 2 μM, 1 μL of a 40 μM test compound was added to 19 μL of a 1 μM protein solution. The mixtures were stored in an incubator at 25° C. for 2 hours, and 80 μL of a 1×TBS solution containing 0.2% formic acid was added thereto to end the reaction, followed by LC-MS measurement. LC-MS measurement was performed using Xevo G2-S Q-Tof manufactured by Waters, and reverse-phase chromatography was performed with a desalting column. A mass spectrum of positive ions was obtained by electrospray. For a mass spectrum, a spectrum of a polyvalent ion was collectively converted to a molecular weight by using OpenLynx software by the MaxEnt technique, and a compound binding rate was obtained from the ratio of a signal intensity that corresponds to the molecular weight of a protein to a signal intensity that corresponds to the molecular weight of a compound binding to the protein.
By obtaining the compound binding rate for K-Ras4B (1-169) and the compound binding rate for G12C K-Ras4B (1-169) at the same time, information of the selectivity for G12C K-Ras4B (1-169) was obtained at the same time.
The test compounds were measured at their final compound concentration of 2 μM. […] Almost no compounds of the present invention binded to K-Ras4B (1-169). The “binding rate” (%) for each of K-Ras4B (1-169) and G12C K-Ras4B (1-169) refers to the ratio of the signal intensity of binded forms to the sum of the signal intensity of non-binded forms and the signal intensity of binded forms.

Sequence of G12C K-Ras4B (1-169) (P01116 other isoform, or with tags, fused parts or gaps G12C): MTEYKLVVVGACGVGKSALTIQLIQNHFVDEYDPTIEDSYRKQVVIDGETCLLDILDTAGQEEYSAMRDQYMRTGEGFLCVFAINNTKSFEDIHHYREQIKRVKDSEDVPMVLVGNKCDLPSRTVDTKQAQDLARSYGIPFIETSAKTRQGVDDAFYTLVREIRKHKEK

SMILES	binding rate for G12C K-Ras4B (1-169)
C=CC(=O)N1CC(NC(=O)c2c(Cl)nc(CNc3n[nH]c4cc(Cl)c(C5(C(F)(F)F)CC5)cc34)n2C(C)C)C1 [Example 44, N-(1-acryloylazetidin-3-yl)-4-chloro-2-(((6-chloro-5-(1-(trifluoromethyl)cyclopropyl)-1H-indazol-3-yl)amino)methyl)-1-isopropyl-1H-imidazole-5-carboxamide]	B (a binding rate of 60% or more and less than 80% is rated “B,”)
C=CC(=O)N1CC(NC(=O)c2c(Cl)nc(CNc3n[nH]c4cc(Cl)c(C(C)C)cc34)n2C(C)C)C1 [Example 45, N-(1-acryloylazetidin-3-yl)-4-chloro-2-(((6-chloro-5-isopropyl-1H-indazol-3-yl)amino)methyl)-1-isopropyl-1H-imidazole-5-carboxamide]	A (a binding rate of 80% or more is rated “A,”)
C=CC(=O)NC1CN(C(=O)c2c(C)nc(CNc3n[nH]c4cc(Cl)c(C(C)(C)C)cc34)n2C)C1 [Example 46, N-(1-(2-(((5-(tert-butyl)-6-chloro-1H-indazol-3-yl)amino)methyl)-1,4-dimethyl-1H-imidazole-5-carbonyl)azetidin-3-yl) acrylamide]	B (a binding rate of 60% or more and less than 80% is rated “B,”)
C=CC(=O)N1CCC(NC(=O)c2c(C)nc(CNc3n[nH]c4cc(Cl)c(C(C)(C)C)cc34)n2C)CC1 [Example 47, N-(1-acryloylpiperidin-4-yl)-2-(((5-(tert-butyl)-6-chloro-1H-indazol-3-yl)amino)methyl)-1,4-dimethyl-1H-imidazole-5-carboxamide]	C (a binding rate of 40% or more and less than 60% is rated “C,”)
C=CC(=O)N1CCC(NC(=O)c2c(C)nc(CNc3n[nH]c4cc(Cl)c(C(C)(C)C)cc34)n2C)C1 (stereo not drawn) [Example 48, N-(1-acryloylpyrrolidin-3-yl)-2-(((5-(tert-butyl)-6-chloro-1H-indazol-3-yl)amino)methyl)-1,4-dimethyl-1H-imidazole-5-carboxamide]	B (a binding rate of 60% or more and less than 80% is rated “B,”)
C=CC(=O)N1CC(N(C)C(=O)c2c(C)nc(CNc3n[nH]c4cc(Cl)c(C(C)(C)C)cc34)n2C)C1 [Example 49, N-(1-acryloylazetidin-3-yl)-2-(((5-(tert-butyl)-6-chloro-1H-indazol-3-yl)amino)methyl)-N,1,4-trimethyl-1H-imidazole-5-carboxamide]	C (a binding rate of 40% or more and less than 60% is rated “C,”)
C=CC(=O)N1CCN(C(=O)c2c(C)nc(CNc3n[nH]c4cc(Cl)c(C(C)(C)C)cc34)n2C)CC1 [Example 50, 1-(4-(2-(((5-(Tert-butyl)-6-chloro-1H-indazol-3-yl)amino)methyl)-1,4-dimethyl-1H-imidazole-5-carbonyl)piperazin-1-yl)prop-2-en-1-one]	C (a binding rate of 40% or more and less than 60% is rated “C,”)
C=CC(=O)N(C)C1CN(C(=O)c2c(C)nc(CNc3n[nH]c4cc(Cl)c(C(C)(C)C)cc34)n2C)C1 [Example 51, N-(1-(2-(((5-(tert-butyl)-6-chloro-1H-indazol-3-yl)amino)methyl)-1,4-dimethyl-1H-imidazole-5-carbonyl)azetidin-3-yl)-N-methylacrylamide]	B (a binding rate of 60% or more and less than 80% is rated “B,”)
C=CC(=O)N1CC(NC(=O)c2c(C)nc(CNc3n[nH]c4cc(Cl)c(C(C)(C)C)cc34)n2C)C(F)(F)C1 (stereo not drawn) [Example 53, N-(1-acryloyl-4,4-difluoropyrrolidin-3-yl)-2-(((5-(tert-butyl)-6-chloro-1H-indazol-3-yl)amino)methyl)-1,4-dimethyl-1H-imidazole-5-carboxamide]	B (a binding rate of 60% or more and less than 80% is rated “B,”)
